For data set [1] the following is noted: ECHA (European Chemicals Agency) website; cited from earlier work.
Data set [2] in a line: Catalytic activity of comparative products in gelling of a siloxane polymer. The protocol: The brown solution gave an orange oil which was tested for catalytic activity in gelling of a siloxane polymer.
A 16.13 wt % aqueous solution of Pt(IV) nitrate (2.624 g, 2.17 mmol) was added to deionised water (50 mL) and a mixture of salicylaldehyde (2.45 mL, 2.8 g, 22.8 mmol) and NaHCO3 (0.765 g, 9.12 mmol) in EtOH (15 mL) was then added. The reaction mixture gave off gas and produced an orange precipitate. Stirring was continued at room temperature for 2 hours. The reaction mixture was then filtered to give an orange precipitate and an orange solution. The precipitate was washed with water and diethylether. […] The product was tested for catalytic activity but none was found. […] The major product appeared to be Pt^IV(HCO3)4.

Data set [3] in a line: Catalytic activity: time until gelling of siloxane composition after 60 s UV irradiation or in the dark. As to conditions: for Gelling time: 60 s UV. The procedure: The product of Example 3 was tested for catalytic activity.
5 mg of the product was dissolved in 1 mL dichloromethane to provide a solution (‘Solution A’).
The following ingredients were added to a UV-grade plastic cuvette: • vinyl terminated polydimethyl siloxane 100 cSt DMS V21 (2g); • (45-55% methylhydrosiloxane)dimethylsiloxane copolymer 10-15 cSt HMS-501 (0.108 mL); • Solution A (25 μL).
The contents of the cuvette were stirred briefly with a spatula to ensure thorough mixing and a 10 mm magnetic flea was added, before sealing with parafilm.
The cuvette was placed in a UV-lamp box. The positioning of samples in the box was kept the same throughout testing (154 mm from ground to top of cuvette; 114 mm between end of housing and front of cuvette).
A 300 W ozone-free Xenon lamp was used (visible to 300 nm). A water-cooled filter removes some of the visible spectrum.
The stirrer speed was set to the 12 o'clock position and the lamp was switched on for 60 seconds only. The time taken from the switching on of the lamp to the stirrer no longer being able to complete a turn was noted as a measure of activity.
Results are provided in the Table below. ‘Irradiated’ indicates samples exposed to the 60 s UV radiation. ‘Dark’ indicates samples left in darkness without any irradiation.
(§1) All other aspects of the test were the same as Example 16. The results reflect gelling time after the 60 s UV irradiation.
The testing was done as in Example 16, except that in the initial step the following four solutions were prepared:
Different amounts of the respective solutions, as shown in the Tables below, were added to the cuvette but all other aspects of the test were the same as Example 16.
as §1

Data set [4] in a line: Qualitative solubility observations. In kind it is physicochemical. The procedure: Stirring was continued at room temperature for 2 hours. […] The precipitate was washed with water and diethylether.
An excess of salicylaldehyde (2 mL, 2.28 g, 18.62 mmol) in EtOH (20 mL) was added and the reaction mixture was heated at 73° C. overnight.
Five different samples were studied: • 1. Vinyl-terminated polydimethylsiloxane 100 cSt • 2.

Data set [5] is described as follows: Stability in dichloromethane during crystal growth. The format is physicochemical. The following applies: dichloromethane (DCM/hexane crystal growth, one week). From the text:
The following different methods were attempted in order to provide suitable crystals for testing. • 1. Growth in acetone/water medium. […] Growth in DCM/hexane. This formed two distinct layers with slow mixing occurring at the interface. […] Growth in chloroform/hexane. This formed two distinct layers with slow mixing occurring at the interface. Slightly larger crystals were formed, but still too small. It took longer for the product to turn brown. • 4. Growth in chloroform: The product was dissolved in chloroform with heating, and immediately filtered before being stored in the freezer. Needle like crystals were formed • 5. Growth in chloroform/hexane in freezer. Needle like crystals were formed

Data set [6] is described as follows: Solubility in various solvents, Pt content by ICP-AES. In kind it is physicochemical. The following applies: 10 mg in 1 mL, room temperature, 3 h, filtered. The protocol: The solubility of the product of Example 3 was tested in various solvents.
In each case, 10 mg of the complex was stirred in 1 mL of each solvent at room temperature for three hours. The solvent was then filtered. One hundred fold dilutions of the samples into methoxypropanol were then carried out and Pt content was determined by ICP-AES using a Spectro Ciros Vision ICP-OES. Yttrium was employed as an internal standard at a concentration of 5 ppm.

A short description of data set [7]: Thermogravimetric analysis (thermal stability). The format is physicochemical. The following applies: TGA. From the text:
(which is the boiling point for salicylaldehyde). Above this temperature the ligand is lost, leaving behind the platinum metal.

The mark [8] stands for this setting: 25 μL of toluene solution, 1.77 mM.
Where [9] appears, read: 50 μL of toluene solution, 1.77 mM.
Setting [10] is: 75 μL of toluene solution, 1.77 mM.
The mark [11] stands for this setting: 200 μL of toluene solution, 1.77 mM.
[12] abbreviates: 360 μL of toluene solution, 1.77 mM.

In the case of `CC1=[C-]CC=C1.[CH3-].[CH3-].[CH3-].[Pt+4]` [(MeCp)PtMe3], in data set [1], the Hazard classification result was “fatal if swallowed, fatal in contact with skin, very toxic to aquatic life, causes serious eye irritation, may cause an allergic skin reaction, causes skin irritation and may cause respiratory irritation”.

Turning to `O=C([O-])O.O=C([O-])O.O=C([O-])O.O=C([O-])O.[Pt+4]` [Comparative Example 6, Pt^IV(HCO3)4], the Catalytic activity result in data set [2] was “none”.

Consider `CC(=O)/C=C(/C)O.CC(=O)/C=C(/C)O.[Pt]` [Solution C, Pt(acac)2], for which the Gelling time turned out to be 1234 s in data set [3] (25 μL of DCM solution, 14.4 mM); 719 s in data set [3] (50 μL of DCM solution, 14.4 mM); 506 s in data set [3] (75 μL of DCM solution, 14.4 mM); 535 s in data set [3] (100 μL of DCM solution, 14.4 mM).

Turning to `CC(=O)/C=C(/C)O.CC(=O)/C=C(/C)O.[Pt]` [Solution E, Pt(acac)2], the Gelling time in data set [3] (setting [8]) is 3544 s; in data set [3] (setting [9]), 1350 s; in data set [3] (setting [10]) it was 938 s; in data set [3] (100 μL of toluene solution, 1.77 mM), 793 s; in data set [3] (setting [11]), 551 s; in data set [3] (setting [12]) it was 486 s.

As to Pt(sal)2 [Example 1], the “Solubility (note on sample)” value in data set [4] (1 mg/mL in acetone) was “saturated solution, prone to some precipitation”; in data set [4] (1 mg/mL in vinyl-terminated polydimethylsiloxane) it was “poor solubility, solution very cloudy and prone to precipitation”.

In the case of Pt(sal)2 [Example 3], in data set [5], the Stability in solvent result is given as “not completely stable”. In addition, the Pt concentration in data set [6] (Acetone:MeCN (1:1)) turned out to be 698 mg/L; in data set [6] (Acetone), 646 mg/L; in data set [6] (Chloroform) it was 3260 mg/L; in data set [6] (EtOH), 103 mg/L; in data set [6] (IPA), 43.4 mg/L; in data set [6] (MIBK), 369 mg/L. The Pt concentration in data set [6] (MeCN:DMSO (80:20)) was 1220 mg/L; in data set [6] (MeCN), 588 mg/L; in data set [6] (Toluene), 346 mg/L; in data set [6] (Water:MeCN (1:1)), 167 mg/L; in data set [6] (Water) it was 42.1 mg/L. Moreover, the “Thermal stability, stable up to” value in data set [7] is “up to 200 °C”. Besides, the Time until gelling in data set [3] (dark, no irradiation, 25 μL of 5 mg in 1 mL dichloromethane) is recorded as 13,500 s; in data set [3] (irradiated (60 s UV), 25 μL of 5 mg in 1 mL dichloromethane), 165 s.

For the compound Pt(sal)2 [Example 7], the Time until gelling in data set [3] (after 60 s UV irradiation, 11 mg in 1 mL dichloromethane) is listed as 208 s.

With Pt(sal)2 [Example 9], in data set [4] (MeOH (washing)), the Solubility result was “only very slightly soluble”.

On to Pt(sal)2 [Solution D], for which the Gelling time is 1263 s in data set [3] (setting [8]); 627 s in data set [3] (setting [9]); 415 s in data set [3] (setting [10]); 231 s in data set [3] (setting [11]); 126 s in data set [3] (setting [12]).

These data come from patent US20210187488A1, “A METHOD OF SYNTHESISING A PT(II) COMPLEX; A PT(II) COMPLEX; USE OF SUCH A COMPLEX AS A PHOTOACTIVATABLE CATALYST IN A HYDROSILYLATION REACTION” (JOHNSON MATTHEY PUBLIC LIMITED COMPANY, priority 2017, published 2021).
